{"source": "paper PMC5454376", "about": "“Molecular mechanism of Gαi activation by non-GPCR proteins with a Gα-Binding and Activating motif” (Nature Communications, 2017)", "key": {"[1]": {"target": "T1, His-Gαi3 K35A (Homo sapiens, UniProt P08754, K35A)", "T1 construct": "Full-length human Gαi3 (UNIPROT entry P08754) cloned in a pET24d(+) plasmid; made in house; host or cells: E. coli BL21 Rosetta", "T1 sequence (P08754 whole entry K35A)": "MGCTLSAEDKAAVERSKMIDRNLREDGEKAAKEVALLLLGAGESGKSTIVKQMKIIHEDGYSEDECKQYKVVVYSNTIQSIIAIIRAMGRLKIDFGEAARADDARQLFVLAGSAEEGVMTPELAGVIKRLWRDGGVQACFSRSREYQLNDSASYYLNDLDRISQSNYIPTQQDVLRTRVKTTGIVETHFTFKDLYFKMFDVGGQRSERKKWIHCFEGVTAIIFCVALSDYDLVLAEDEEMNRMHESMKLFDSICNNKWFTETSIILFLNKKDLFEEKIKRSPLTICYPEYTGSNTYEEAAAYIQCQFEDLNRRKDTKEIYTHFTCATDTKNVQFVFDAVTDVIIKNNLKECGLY", "experiment": "Fluorescence polarization peptide binding, Gαi3 K35A", "details": "peptide 0.025 μM, pH 7.4, room temperature, mean±s.e.m., n=3–7, Fig. 4d, read-out: Kd ± SEM", "description": "(§1) Human Gαi3 was expressed from the same plasmid as described for the NMR studies and purified as an uncleaved His-tagged protein. […] After sonication (four cycles, with pulses lasting 20 s and with 1 min interval between pulses to prevent heating), lysates were centrifuged at 12,000g for 20 min at 4 °C. […] The buffer was exchanged for 20 mM Tris-HCl, pH 7.4, 20 mM NaCl, 1 mM MgCl2, 1 mM DTT, 10 μM GDP and 5% (v/v) glycerol using a HiTrap Desalting column (GE Healthcare). Protein samples were stored at −80 °C.\n(§2) Fluorescence polarization-based peptide-binding assays\n(§3) Briefly, following chain elongation 5,6-carboxyfluorescein was activated with HATU and coupled to the resin-bound peptide at 65 °C for 1 h to yield the fluorescein-labelled peptides. […] Fluorescence polarization measurements were carried out in 384-well plates (Black OptiPlate-384F, Perkin Elmer). […] Fluorescence polarization (excitation 485±10 nm/emission 528±10 nm) was measured every 2 min for 30 min at room temperature in a Biotek H1 synergy plate reader to ensure that the signals were stable in time. Fluorescence polarization at different times was averaged, normalized and fitted to a one site binding hyperbola to determine the equilibrium dissociation constant (Kd). For mutants not reaching binding saturation, the maximal binding of Gαi3 WT measured in the same experimental set was considered 100% binding for normalization."}, "[2]": {"target": "T2, His-Gαi3 W211A (Homo sapiens, UniProt P08754, W211A)", "T2 construct": "Full-length human Gαi3 (UNIPROT entry P08754) cloned in a pET24d(+) plasmid; made in house; host or cells: E. coli BL21 Rosetta", "T2 sequence (P08754 whole entry W211A)": "as the sequence (P08754 whole entry K35A) above, with A35K, W211A counted along it", "experiment": "Fluorescence polarization peptide binding, Gαi3 W211A", "details": "peptide 0.025 μM, pH 7.4, room temperature, mean±s.e.m., n=3–7, Fig. 4d, read-out: Kd ± SEM", "description": "as §1, §2, §3"}, "[3]": {"target": "T3, His-Gαi3 F215A (Homo sapiens, UniProt P08754, F215A)", "T3 construct": "Full-length human Gαi3 (UNIPROT entry P08754) cloned in a pET24d(+) plasmid; made in house; host or cells: E. coli BL21 Rosetta", "T3 sequence (P08754 whole entry F215A)": "as the sequence (P08754 whole entry K35A) above, with A35K, F215A counted along it", "experiment": "Fluorescence polarization peptide binding, Gαi3 F215A", "details": "peptide 0.025 μM, pH 7.4, room temperature, mean±s.e.m., n=3–7, Fig. 4d, read-out: Kd ± SEM", "description": "as §1, §2, §3"}, "[4]": {"target": "T4, His-Gαi3 L249V (Homo sapiens, UniProt P08754, L249V)", "T4 construct": "Full-length human Gαi3 (UNIPROT entry P08754) cloned in a pET24d(+) plasmid; made in house; host or cells: E. coli BL21 Rosetta", "T4 sequence (P08754 whole entry L249V)": "as the sequence (P08754 whole entry K35A) above, with A35K, L249V counted along it", "experiment": "Fluorescence polarization peptide binding, Gαi3 L249V", "details": "peptide 0.025 μM, pH 7.4, room temperature, mean±s.e.m., n=3–7, Fig. 4d, read-out: Kd ± SEM", "description": "as §1, §2, §3"}, "[5]": {"target": "T5, His-Gαi3 N256E (Homo sapiens, UniProt P08754, N256E)", "T5 construct": "Full-length human Gαi3 (UNIPROT entry P08754) cloned in a pET24d(+) plasmid; made in house; host or cells: E. coli BL21 Rosetta", "T5 sequence (P08754 whole entry N256E)": "as the sequence (P08754 whole entry K35A) above, with A35K, N256E counted along it", "experiment": "Fluorescence polarization peptide binding, Gαi3 N256E", "details": "peptide 0.025 μM, pH 7.4, room temperature, mean±s.e.m., n=3–7, Fig. 4d, read-out: Kd ± SEM", "description": "as §1, §2, §3"}, "[6]": {"target": "T6, ΔHis-Gαi3 (Homo sapiens, UniProt P08754)", "T6 construct": "Full-length human Gαi3 (UNIPROT entry P08754) cloned in a pET24d(+) plasmid; His-tag (N, cleaved yes); made in house; host or cells: E. coli BL21 Rosetta", "T6 sequence (P08754 whole entry, stated change not applied)": "as the sequence (P08754 whole entry K35A) above, with A35K counted along it", "experiment": "Fluorescence polarization peptide binding, ΔHis-Gαi3", "details": "room temperature, n=3, Supplementary Fig. 5", "description": "Briefly, following chain elongation 5,6-carboxyfluorescein was activated with HATU and coupled to the resin-bound peptide at 65 °C for 1 h to yield the fluorescein-labelled peptides. The remaining steps were carried out as described above. Fluorescence polarization measurements were carried out in 384-well plates (Black OptiPlate-384F, Perkin Elmer). […] Fluorescence polarization (excitation 485±10 nm/emission 528±10 nm) was measured every 2 min for 30 min at room temperature in a Biotek H1 synergy plate reader to ensure that the signals were stable in time. Fluorescence polarization at different times was averaged, normalized and fitted to a one site binding hyperbola to determine the equilibrium dissociation constant (Kd). For mutants not reaching binding saturation, the maximal binding of Gαi3 WT measured in the same experimental set was considered 100% binding for normalization."}, "[7]": {"system": "His-Gαi3 W211A and F215A", "experiment": "Gβγ-binding pull-down assay", "parameters": "species or system human", "details": "bovine Gβ1γ1 100 nM, Gαi3 50 nM, 4 h, 4 °C, 30 μM GDP", "description": "Gβγ was purified from bovine retinas, which are primarily composed of Gβ1γ1 by purification of holotransducin from rod outer segment (ROS) membranes isolated from dark-adapted bovine followed by separation of the Gβ1γ1 complex from the α-subunit of transducin on a Hitrap Blue-sepharose column (GE healthcare), and further purification by anion exchange chromatography using a Hitrap-Q column.\nFor binding assays, Gβ1γ1 (100 nM final) was incubated in the absence or presence of human His-tagged Gαi3 WT or mutants (50 nM final) in 250 μl of binding buffer (50 mM Tris-HCl, pH 7.4, 100 mM NaCl, 0.4% (v:v) NP-40, 5 mM MgCl2, 10 mM imidazole, 0.1 mg ml^−1 BSA, 1 mM DTT and 30 μM GDP) for 4 h at 4 °C with rotation. A volume of 25 μl of BSA-blocked HisPur cobalt resin (Pierce) were added to each tube and the incubation continued for 90 min. Beads were washed four times with 1 ml of binding buffer and resin-bound proteins eluted by adding Laemmli sample buffer supplemented with 100 mM EDTA and boiling for 5 min. […]"}, "[8]": {"system": "Gαi3-GDP", "experiment": "NMR perturbation of Gαi3-GDP backbone amide signals", "assay_type": "binding, human", "details": "fivefold molar excess of peptide, 30 °C, pH 7.0", "description": "Full-length human Gαi3 (UNIPROT entry P08754) cloned in a pET24d(+) plasmid (a generous gift from Ichio Shimada, University of Tokyo) was used to purify the protein used in NMR experiments. For this, protein expression was induced in BL21 Rosetta (Life Technologies) cell cultures with 1 mM IPTG for 16 h at 23 °C in a modified M9 minimal medium containing 1 g l^−1 15N-NH4Cl, 2 g l^−1 2H-^13C-glucose and 1 g l^−1 of ^2H-^13C-^15N Celtone base powder in ^2H2O with 30 mg l^−1 kanamycin and 34 mg l^−1 chloramphenicol. The pelleted cells were lysed by sonication in 50 mM Tris, 200 mM NaCl, 100 mM KCl and 1 mM DTT at pH 8.0, and the supernatant was loaded on a Ni^2+-loaded His-Trap FF column. […]\nAll NMR data were measured on a Bruker Avance III 800 MHz (18.8 T) spectrometer equipped with a cryogenically cooled triple resonance z-gradient probe, processed with Topspin (Bruker) and analysed with Sparky. […] Gαi3 spectra were recorded at 30 °C on ^2H-^13C-^15N–Gαi3 samples with a threefold molar excess of GDP in 10 mM HEPES (pH 7.0) with 10 mM MgCl2, 5 mm DTT, 0.01% NaN3 and 5% ^2H2O. […] The assignment of Gαi3 resonances in the presence of a fivefold molar excess of GIV fragment 1,671–1,696 was achieved from the joint analysis of an HNCO and ^1H–^15N TROSY spectra recorded along a titration (at molar ratios 1:0, 1:0.2,1:0.5, 1:1, 1:2 and 1:5). […]"}, "[9]": {"system": "His-Gαi3 mutants in complex with Gβ1γ1", "experiment": "Steady-state GTPase assay with rhodopsin", "assay_type": "biochemical, human", "details": "rhodopsin 20 nM, Gαi3/Gβ1γ1 100/200 nM, 30 °C", "description": "Steady-state GTPase assays with rhodopsin\nROS membranes washed with urea were prepared as described earlier and used as the source of rhodopsin[67]. Human His-tagged Gαi3 WT and mutants (20–25 μM) were incubated overnight at 4 °C with twofold excess Gβ1γ1 in 20 mM Tris-HCl, pH 7.4, 20 mM NaCl, 1 mM MgCl2, 1 mM DTT, 10 μM GDP and 5% (v/v) glycerol. Bovine rhodopsin was freshly solubilized from urea-washed ROS membranes in assay buffer (20 mM HEPES, pH 7.5, 100 mM NaCl, 5 mM MgCl2, 1 mM DTT and 0.01% (w:v) dodecylmaltoside) for each experiment. Gαi3/Gβ1γ1 (100/200 nM final) and rhodopsin (20 nM final) were incubated in ice for 30 min under ambient light in assay buffer. Reactions were initiated at 30 °C by adding an equal volume of assay buffer containing 1 μM [γ-^32P]GTP (∼50 c.p.m. fmol^−1) and stopped in duplicates by mixing 25 μl of the reaction with 975 μl of ice-cold 5% (w/v) activated charcoal in 20 mM H3PO4, pH 3. Samples were then centrifuged for 10 min at 10,000g, and 500 μl of the resultant supernatant were scintillation-counted to quantify the amount of [^32P]Pi released. Background [^32P]Pi detected at 15 min in the absence of G protein was subtracted from each reaction (<5% of the counts detected in the presence of G proteins). Results were expressed as per cent of the activity of Gi3 WT without rhodopsin."}}, "note": "Where a SMILES comes first, the peptide text is derived from it. The star is where a group is joined. 6FAM = O=C1OC2(c3ccc(O)cc3Oc3cc(O)ccc32)c2cc(C(=O)*)ccc21"}
{"compound": "CC[C@H](C)[C@H](NC(=O)[C@H](CCC(N)=O)NC(=O)[C@@H](NC(=O)[C@H](CO)NC(=O)[C@@H](NC(=O)[C@H](CC(C)C)NC(=O)[C@H](CCCCN)NC(=O)[C@H](CC(N)=O)NC(=O)[C@H](CO)NC(=O)[C@H](CCC(=O)O)NC(=O)[C@H](CCC(=O)O)NC(=O)[C@H](CC(C)C)NC(=O)[C@H](Cc1ccccc1)NC(=O)[C@H](CCC(N)=O)NC(=O)[C@H](CCC(N)=O)NC(=O)[C@H](CC(C)C)NC(=O)[C@@H](NC(=O)[C@@H](NC(=O)[C@@H](NC(=O)[C@H](CCC(=O)O)NC(=O)[C@H](CO)NC(=O)CNC(=O)[C@@H]1CCCN1C(=O)[C@H](CO)NC(=O)CNC(=O)[C@@H](NC(=O)[C@H](CCCCN)NC(=O)c1ccc2c(c1)C1(OC2=O)c2ccc(O)cc2Oc2cc(O)ccc21)[C@@H](C)O)C(C)C)C(C)C)[C@@H](C)O)[C@@H](C)O)C(C)C)C(=O)N[C@@H](CCCCN)C(=O)N[C@@H](CO)C(=O)N[C@@H](CO)C(=O)N[C@@H](CO)C(N)=O", "note": "[GIV]", "values": [{"measurement": "Kd", "setting": "[1]", "value": "> 10", "unit": "µM"}, {"measurement": "Kd", "setting": "[2]", "value": "> 20", "unit": "µM"}, {"measurement": "Kd", "setting": "[3]", "value": "> 10", "unit": "µM"}, {"measurement": "Kd", "setting": "[4]", "value": "1.37 ± 0.199", "unit": "µM"}, {"measurement": "Kd", "setting": "[5]", "value": "> 20", "unit": "µM"}, {"measurement": "affinity for ΔHis-Gαi3 compared with His-Gαi3", "setting": "[6]", "value": "the same affinity"}]}
{"compound": "CC[C@H](C)[C@H](NC(=O)[C@H](CC(C)C)NC(=O)[C@H](CCC(=O)O)NC(=O)[C@H](Cc1ccccc1)NC(=O)[C@H](Cc1ccccc1)NC(=O)[C@H](CCC(=O)O)NC(=O)[C@H](CCC(=O)O)NC(=O)[C@H](C)NC(=O)[C@H](CCC(=O)O)NC(=O)[C@H](CC(=O)O)NC(=O)c1ccc2c(c1)C1(OC2=O)c2ccc(O)cc2Oc2cc(O)ccc21)C(=O)N[C@@H](CO)C(=O)N[C@@H](CCCCN)C(=O)N[C@@H](C)C(=O)N[C@@H](CCC(N)=O)C(=O)N[C@@H](CO)C(=O)N[C@@H](CC(N)=O)C(=O)N[C@@H](CCCNC(=N)N)C(=O)N[C@@H](C)C(=O)N[C@@H](CC(=O)O)C(=O)N[C@@H](CC(=O)O)C(=O)N[C@@H](CCC(N)=O)C(=O)N[C@@H](CCCNC(=N)N)C(=O)NCC(=O)N[C@@H](CC(C)C)C(=O)N[C@@H](CC(C)C)C(=O)N[C@@H](CCCNC(=N)N)C(=O)N[C@@H](CCCCN)C(=O)N[C@@H](CCC(=O)O)C(=O)N[C@@H](CC(=O)O)C(=O)N[C@@H](CC(C)C)C(=O)N[C@H](C(=O)N[C@@H](CC(C)C)C(=O)N1CCC[C@H]1C(=O)N[C@@H](CCC(=O)O)C(=O)N[C@@H](Cc1ccccc1)C(=O)N[C@@H](CC(C)C)C(=O)N[C@@H](CCCNC(=N)N)C(N)=O)C(C)C", "note": "[RGS12, reference compound] (6FAM-DEAEEFFELISKAQSNRADDQRGLLRKEDLVLPEFLR-NH2)", "values": [{"measurement": "Kd", "setting": "[4]", "value": "0.084 ± 0.009", "unit": "µM"}]}
{"compound": "Gβγ: retinal Gβγ (Gβ1γ1) purified from bovine retinas", "values": [{"measurement": "binding to Gαi3 W211A and F215A", "setting": "[7]", "value": "abolished"}]}
{"compound": "KTGSPGSEVVTLQQFLEESNKLTSVQ [GIVpept, peptide corresponding to GIV amino acids 1,671–1,696]", "values": [{"measurement": "overall decrease in signal intensities", "setting": "[8]", "value": "~15", "unit": "%"}]}
{"compound": "rhodopsin: bovine rhodopsin solubilized from urea-washed ROS membranes", "values": [{"measurement": "activation of Gαi3 mutants", "setting": "[9]; K35A, L249H, S252D and N256E", "value": "activated efficiently"}, {"measurement": "activation of Gαi3 ΔC9", "setting": "[9]; ΔC9", "value": "completely abolished"}]}
